Experimental data reported in ChEMBL document CHEMBL1201862, “PubChem BioAssay data set” (2004).
The source made the active and inactive calls.

What was measured:
[1] = system: BJ; assay: BJ-TERT-LT-ST fibroblast viability loss – cell-based, RAS-independent, luminescence, dose response (AID 1935); assay type: functional; conditions: Homo sapiens;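 further: BJ fibroblasts immortalized with TERT plus LT and ST oncogenes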
[2] = alpha-synuclein stem-loop luciferase translation blockers – H4 neuroglioma cells, luminescence, confirmation (AID 1988); assay type: functional, cell-based
[3] = system: BJ; assay: BJ-TERT fibroblast viability loss – cell-based, RAS-independent, luminescence, dose response (AID 1933); assay type: functional; conditions: Homo sapiens
[4] = system: BJ; assay: cells; assay type: functional, cell-based; conditions: Homo sapiens
[5] = Luminescence Cell-Based Dose Response HTS to Identify Inhibitors of 5'UTR Stem-Loop Driven Prion Protein mRNA Translation in H4 Neuroglioblastoma Cells. [Related pubchem assays: 1827 (Project Summary), 1813 (Primary HTS)]; assay type: functional
[6] = luciferase reporter signal suppression in cells – H4 neuroglioma cells, luminescence, dose response (AID 1990); assay type: functional, cell-based
[7] = DRD fibroblast viability loss – cell-based, non-viral oncogenic, luminescence, dose response (AID 1934); assay type: functional; conditions: Homo sapiens
[8] = HEK-293T viability loss after treatment – luminescence, T-cell screen hits, cytotoxicity control for TCR NF-kB inhibitor project, dose response (AID 489026); assay type: functional, cell-based;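 further: cells exposed to compound about 14 hours before the viability readout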
[9] = HEK-293T cell viability reduction – luminescence, B-cell screen hits, cytotoxicity control for BCR NF-kB inhibitor project, dose response (AID 489021); assay type: functional, cell-based;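 further: HEK-293T cells carrying an NF-kB luciferase reporter; cells exposed to compound for about 14 hours before viability readout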
[10] = reduced cellular PGC1a acetyl-lysine signal – cell-based, cherry-picked samples, dose response (AID 720514); assay type: functional;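 further: potency may reflect raised or lowered acetylation signal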
[11] = biological target: Peroxisome proliferator-activated receptor gamma/Nuclear receptor coactivator 1 (Homo sapiens, UniProt P37231); assay type: functional;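 further: agonist potency as compounds enhance coactivator SRC-1 recruitment to PPARgamma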
Peroxisome proliferator-activated receptor gamma/Nuclear receptor coactivator 1, sequence (P37231 whole entry): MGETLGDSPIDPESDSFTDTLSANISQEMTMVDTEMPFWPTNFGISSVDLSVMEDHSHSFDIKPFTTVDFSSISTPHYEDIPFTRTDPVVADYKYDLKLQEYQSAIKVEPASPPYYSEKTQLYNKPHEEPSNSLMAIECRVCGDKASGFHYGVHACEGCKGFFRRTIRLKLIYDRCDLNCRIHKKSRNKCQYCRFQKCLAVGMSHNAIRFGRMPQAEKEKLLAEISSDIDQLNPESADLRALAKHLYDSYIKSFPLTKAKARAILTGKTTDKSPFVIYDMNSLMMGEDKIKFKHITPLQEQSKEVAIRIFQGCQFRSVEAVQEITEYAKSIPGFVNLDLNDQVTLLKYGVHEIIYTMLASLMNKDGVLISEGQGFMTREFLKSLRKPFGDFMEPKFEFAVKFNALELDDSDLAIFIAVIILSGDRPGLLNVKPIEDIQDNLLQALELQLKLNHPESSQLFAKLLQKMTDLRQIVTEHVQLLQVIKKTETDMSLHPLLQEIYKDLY
Peroxisome proliferator-activated receptor gamma/Nuclear receptor coactivator 1, sequence (Q15788 whole entry, further chain): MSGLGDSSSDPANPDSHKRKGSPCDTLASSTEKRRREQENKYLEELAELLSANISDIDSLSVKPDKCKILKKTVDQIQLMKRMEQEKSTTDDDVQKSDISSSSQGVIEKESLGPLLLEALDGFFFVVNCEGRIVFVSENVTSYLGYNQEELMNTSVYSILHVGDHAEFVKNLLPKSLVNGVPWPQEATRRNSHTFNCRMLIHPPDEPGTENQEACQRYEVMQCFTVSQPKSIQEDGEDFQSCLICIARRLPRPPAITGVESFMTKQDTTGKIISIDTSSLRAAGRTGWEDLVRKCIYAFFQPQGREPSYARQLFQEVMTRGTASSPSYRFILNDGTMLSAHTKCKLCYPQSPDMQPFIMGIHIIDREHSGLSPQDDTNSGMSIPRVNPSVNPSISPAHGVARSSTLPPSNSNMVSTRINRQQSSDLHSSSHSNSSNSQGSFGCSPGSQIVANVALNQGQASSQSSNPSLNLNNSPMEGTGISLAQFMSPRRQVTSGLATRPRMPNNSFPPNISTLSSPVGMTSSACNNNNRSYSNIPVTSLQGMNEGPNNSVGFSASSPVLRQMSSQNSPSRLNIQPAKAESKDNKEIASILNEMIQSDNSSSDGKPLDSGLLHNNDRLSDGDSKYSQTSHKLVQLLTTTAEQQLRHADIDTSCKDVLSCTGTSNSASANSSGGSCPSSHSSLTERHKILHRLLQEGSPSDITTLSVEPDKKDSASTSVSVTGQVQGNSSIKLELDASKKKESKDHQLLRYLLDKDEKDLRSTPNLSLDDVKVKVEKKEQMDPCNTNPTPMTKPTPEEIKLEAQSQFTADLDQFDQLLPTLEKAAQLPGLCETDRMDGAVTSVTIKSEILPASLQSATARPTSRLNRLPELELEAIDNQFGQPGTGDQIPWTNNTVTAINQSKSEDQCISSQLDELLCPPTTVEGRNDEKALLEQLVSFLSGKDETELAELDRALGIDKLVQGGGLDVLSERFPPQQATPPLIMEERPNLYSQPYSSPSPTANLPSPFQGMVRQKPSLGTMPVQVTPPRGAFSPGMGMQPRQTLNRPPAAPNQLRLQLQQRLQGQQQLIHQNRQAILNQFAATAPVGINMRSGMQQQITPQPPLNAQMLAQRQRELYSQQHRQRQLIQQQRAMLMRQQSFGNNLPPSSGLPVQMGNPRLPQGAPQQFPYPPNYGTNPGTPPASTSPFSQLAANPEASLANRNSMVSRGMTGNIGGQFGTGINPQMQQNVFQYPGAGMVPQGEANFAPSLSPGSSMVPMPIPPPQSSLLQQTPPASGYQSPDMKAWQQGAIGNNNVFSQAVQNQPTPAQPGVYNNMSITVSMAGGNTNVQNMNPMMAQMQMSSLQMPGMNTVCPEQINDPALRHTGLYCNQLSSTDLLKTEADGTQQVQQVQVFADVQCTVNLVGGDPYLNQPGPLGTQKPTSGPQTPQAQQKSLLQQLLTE

[12] = biological target: Peroxisome proliferator-activated receptor gamma/Nuclear receptor coactivator 3 (Homo sapiens, UniProt P37231); assay type: functional;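 further: agonist potency for raising coactivator recruitment to the receptor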
[13] = biological target: Peroxisome proliferator-activated receptor gamma/Nuclear receptor coactivator 2 (Homo sapiens, UniProt P37231); assay type: functional;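 further: agonist potency for raising coactivator recruitment to the receptor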
Peroxisome proliferator-activated receptor gamma/Nuclear receptor coactivator 2, sequence (P37231 whole entry): as the sequence (P37231 whole entry) above
Peroxisome proliferator-activated receptor gamma/Nuclear receptor coactivator 2, sequence (Q15596 whole entry, further chain): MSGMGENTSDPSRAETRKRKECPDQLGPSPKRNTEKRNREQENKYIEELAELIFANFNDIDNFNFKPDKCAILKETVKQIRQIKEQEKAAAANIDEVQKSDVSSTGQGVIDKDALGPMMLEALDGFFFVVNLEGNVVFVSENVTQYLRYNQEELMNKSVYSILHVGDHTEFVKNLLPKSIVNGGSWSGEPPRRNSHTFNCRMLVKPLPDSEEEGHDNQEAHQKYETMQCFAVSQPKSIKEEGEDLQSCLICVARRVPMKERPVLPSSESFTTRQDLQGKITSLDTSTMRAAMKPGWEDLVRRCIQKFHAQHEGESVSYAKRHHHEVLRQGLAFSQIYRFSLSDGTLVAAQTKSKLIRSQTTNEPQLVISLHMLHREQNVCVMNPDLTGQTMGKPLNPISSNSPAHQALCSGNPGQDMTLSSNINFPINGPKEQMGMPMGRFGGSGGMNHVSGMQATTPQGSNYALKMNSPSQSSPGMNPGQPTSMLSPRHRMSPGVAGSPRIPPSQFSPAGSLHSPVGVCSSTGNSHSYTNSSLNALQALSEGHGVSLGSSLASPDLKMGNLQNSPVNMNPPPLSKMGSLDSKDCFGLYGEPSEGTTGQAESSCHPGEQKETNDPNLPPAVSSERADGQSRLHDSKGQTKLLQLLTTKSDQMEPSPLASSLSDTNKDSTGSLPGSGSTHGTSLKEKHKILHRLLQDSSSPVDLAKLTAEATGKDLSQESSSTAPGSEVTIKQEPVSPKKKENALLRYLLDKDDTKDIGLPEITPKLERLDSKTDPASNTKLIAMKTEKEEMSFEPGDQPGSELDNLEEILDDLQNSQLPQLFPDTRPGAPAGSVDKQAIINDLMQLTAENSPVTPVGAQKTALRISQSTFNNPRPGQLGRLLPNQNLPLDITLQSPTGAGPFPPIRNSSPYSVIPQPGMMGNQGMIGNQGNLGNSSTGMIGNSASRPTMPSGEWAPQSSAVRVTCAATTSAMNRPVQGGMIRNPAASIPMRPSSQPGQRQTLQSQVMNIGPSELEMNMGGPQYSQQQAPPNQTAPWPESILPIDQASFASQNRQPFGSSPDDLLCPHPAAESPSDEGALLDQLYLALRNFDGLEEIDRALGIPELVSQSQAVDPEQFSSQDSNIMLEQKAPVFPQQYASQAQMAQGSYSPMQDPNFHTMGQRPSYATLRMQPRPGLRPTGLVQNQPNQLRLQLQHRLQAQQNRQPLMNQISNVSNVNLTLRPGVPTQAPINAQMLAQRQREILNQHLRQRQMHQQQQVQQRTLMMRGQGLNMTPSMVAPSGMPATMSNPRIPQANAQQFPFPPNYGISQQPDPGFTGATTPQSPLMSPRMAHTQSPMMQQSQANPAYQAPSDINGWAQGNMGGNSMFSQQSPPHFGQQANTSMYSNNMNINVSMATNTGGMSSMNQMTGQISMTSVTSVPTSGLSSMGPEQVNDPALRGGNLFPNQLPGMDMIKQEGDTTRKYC

[14] = biological target: DNA dC->dU-editing enzyme APOBEC-3G (Homo sapiens, UniProt Q9HC16); assay: Dose Response confirmation of small molecule APOBEC3G DNA Deaminase Inhibitors via a fluorescence-based single-stranded DNA deaminase assay. [Related pubchem assays (depositor defined):AID493012, AID493028]; assay type: functional
DNA dC->dU-editing enzyme APOBEC-3G, sequence (Q9HC16 whole entry): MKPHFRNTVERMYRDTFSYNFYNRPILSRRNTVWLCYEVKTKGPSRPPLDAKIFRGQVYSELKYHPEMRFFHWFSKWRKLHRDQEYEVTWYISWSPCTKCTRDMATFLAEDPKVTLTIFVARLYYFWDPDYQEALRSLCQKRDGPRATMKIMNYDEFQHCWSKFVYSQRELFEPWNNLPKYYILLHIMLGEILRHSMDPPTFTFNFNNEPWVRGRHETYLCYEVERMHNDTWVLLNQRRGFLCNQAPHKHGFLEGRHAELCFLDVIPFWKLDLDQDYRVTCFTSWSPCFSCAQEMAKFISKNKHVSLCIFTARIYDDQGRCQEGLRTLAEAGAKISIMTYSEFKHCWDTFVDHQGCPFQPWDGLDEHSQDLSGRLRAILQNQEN

[15] = biological target: T1, Rac GTPase-activating protein 1 (Homo sapiens, UniProt Q9H0H5); assay: blockers of MgcRacGAP-driven Rac1 GTP hydrolysis – biochemical, ADP Hunter fluorescence, primary and confirmatory, confirmation (AID 624330); assay type: functional
T1 sequence (Q9H0H5 whole entry): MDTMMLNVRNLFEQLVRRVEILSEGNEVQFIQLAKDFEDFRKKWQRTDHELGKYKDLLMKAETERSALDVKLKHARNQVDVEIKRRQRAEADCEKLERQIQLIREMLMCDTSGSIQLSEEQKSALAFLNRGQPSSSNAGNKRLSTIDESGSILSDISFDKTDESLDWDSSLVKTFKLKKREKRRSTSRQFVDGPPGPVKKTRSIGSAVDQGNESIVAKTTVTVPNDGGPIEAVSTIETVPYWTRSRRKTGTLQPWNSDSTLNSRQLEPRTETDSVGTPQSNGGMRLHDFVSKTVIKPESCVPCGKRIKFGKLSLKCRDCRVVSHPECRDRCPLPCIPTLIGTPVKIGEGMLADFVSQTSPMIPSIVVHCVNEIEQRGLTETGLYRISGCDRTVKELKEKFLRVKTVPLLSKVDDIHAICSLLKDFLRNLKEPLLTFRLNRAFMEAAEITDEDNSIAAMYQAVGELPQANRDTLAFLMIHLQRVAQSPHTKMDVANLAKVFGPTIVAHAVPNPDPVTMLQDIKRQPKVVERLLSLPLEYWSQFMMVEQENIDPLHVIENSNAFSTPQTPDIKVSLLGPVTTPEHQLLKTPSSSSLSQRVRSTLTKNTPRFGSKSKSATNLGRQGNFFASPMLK

[16] = biological target: DNA dC->dU-editing enzyme APOBEC-3A (Homo sapiens, UniProt P31941); assay: A3A deaminase inhibition for selectivity – biochemical, dose response (AID 504722); assay type: functional
DNA dC->dU-editing enzyme APOBEC-3A, sequence (P31941 whole entry): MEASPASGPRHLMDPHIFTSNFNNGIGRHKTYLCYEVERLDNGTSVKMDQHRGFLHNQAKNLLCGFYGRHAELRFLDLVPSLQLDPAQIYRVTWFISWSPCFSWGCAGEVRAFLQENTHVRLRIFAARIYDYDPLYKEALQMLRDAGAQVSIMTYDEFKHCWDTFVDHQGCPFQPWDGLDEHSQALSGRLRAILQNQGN

[17] = viability of uninfected HEp-2 cells – cell-based, HTS, cytotoxicity control for RSV inhibitor project, dose response (AID 2410); assay type: functional; conditions: human respiratory syncytial virus
[18] = biological target: T2, Short transient receptor potential channel 4 (Mus musculus, UniProt Q9QUQ5); assay: block of DAMGO-driven TRPC4 calcium entry – cell-based, HEK293 TRPC4/mu-opioid, Fluo-4 calcium, dose response (AID 434942); assay type: functional;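 further: potency of inhibitors blocking the TRPC4 calcium response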
T2 sequence (Q9QUQ5 whole entry): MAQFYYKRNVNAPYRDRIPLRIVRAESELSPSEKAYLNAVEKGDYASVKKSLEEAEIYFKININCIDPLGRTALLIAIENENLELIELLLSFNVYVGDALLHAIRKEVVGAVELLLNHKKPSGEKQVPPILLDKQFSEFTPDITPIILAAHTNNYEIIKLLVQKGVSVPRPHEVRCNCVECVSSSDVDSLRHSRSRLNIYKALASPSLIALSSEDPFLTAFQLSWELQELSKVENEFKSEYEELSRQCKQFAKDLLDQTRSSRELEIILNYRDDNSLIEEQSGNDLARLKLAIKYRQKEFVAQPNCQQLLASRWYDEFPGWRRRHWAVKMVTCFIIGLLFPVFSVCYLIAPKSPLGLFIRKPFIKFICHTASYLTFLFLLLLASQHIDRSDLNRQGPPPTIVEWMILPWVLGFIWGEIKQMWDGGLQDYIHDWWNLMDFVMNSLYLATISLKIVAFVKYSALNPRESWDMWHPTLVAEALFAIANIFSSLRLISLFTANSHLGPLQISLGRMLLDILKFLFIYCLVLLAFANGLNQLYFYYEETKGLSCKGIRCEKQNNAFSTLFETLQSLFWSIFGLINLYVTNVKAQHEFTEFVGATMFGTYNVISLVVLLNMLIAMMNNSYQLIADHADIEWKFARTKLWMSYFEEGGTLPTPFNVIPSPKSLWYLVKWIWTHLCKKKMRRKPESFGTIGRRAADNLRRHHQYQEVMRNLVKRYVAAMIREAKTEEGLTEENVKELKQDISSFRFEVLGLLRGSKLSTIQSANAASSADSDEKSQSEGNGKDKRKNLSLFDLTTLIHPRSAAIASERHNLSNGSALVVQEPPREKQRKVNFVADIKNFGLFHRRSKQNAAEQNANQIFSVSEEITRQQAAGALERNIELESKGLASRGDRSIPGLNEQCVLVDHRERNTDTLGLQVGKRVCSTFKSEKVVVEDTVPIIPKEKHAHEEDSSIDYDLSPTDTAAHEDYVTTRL

SMILES: COc1ccc(-n2nnnc2-c2cccc(OC)c2)cc1
- EC50 [1]: 2.71 µM (active)
- EC50 [2]: 0.824 µM (inconclusive)
- EC50 [3]: 8.48 µM (active)
- EC50 [4]: 109 µM (active)
- EC50 [5]: 11.6 µM (active)
- EC50 [6]: 4.68 µM (inconclusive)
- EC50 [7]: 2.04 µM (active)
- IC50 [8]: > 80 µM (inactive)

SMILES: Cc1cc(OCC(=O)NC2CC2)c2c(C)c(C)c(=O)oc2c1
- IC50 [9]: > 80 µM (inactive)

SMILES: Cc1ccc(/C=C2\SC(=S)N(CCC(=O)NNC(=O)c3ccncc3)C2=O)cc1
- IC50 [9]: > 80 µM (inactive)

SMILES: Cc1cc(OCC(=O)Nc2ccc(CCO)cc2)c2c(C)c(C)c(=O)oc2c1
- IC50 [9]: > 80 µM (inactive)

SMILES: C[C@H](CO)N1C[C@H](C)[C@H](CN(C)Cc2ccccc2)Oc2cc(Br)ccc2S1(=O)=O
- AC50 [10]: 25.8 µM (active)

SMILES: Fc1cccc(-c2ccc([C@@H]3[C@@H]4CN(Cc5nccs5)C[C@H]3N4)cc2)c1
- AC50 [10]: 17.6 µM (active)

SMILES: O=C(C[C@H]1CC[C@@H](NC(=O)c2ccccc2)[C@H](CO)O1)Nc1ccc(-c2ccccc2)cc1
- AC50 [10]: 4.76 µM (active)

SMILES: COc1ccc(OC)c2c1s/c(=N\C(=O)C(C)(C)C)n2C
- EC50 [11]: > 79.4 µM (not active)
- EC50 [12]: > 79.4 µM (not active)
- EC50 [13]: > 79.4 µM (not active)

SMILES: Cc1cc(-c2nnc(S)n2/N=C/c2cccc(O)c2)[nH]n1
- IC50 [14]: 2.51 µM (active)
- IC50 [15]: 157 µM (active)
- IC50 [16]: > 100 µM (inactive)

SMILES: CCOc1cc(/C=N\Nc2nc(Nc3ccccc3)nc(N3CCOCC3)n2)ccc1OC(=O)c1ccco1
- IC50 [9]: > 80 µM (inactive)

SMILES: Cc1nn(-c2ccccc2)c(C)c1/C=N/n1c(S)nnc1-c1ccncc1
- IC50 [14]: 2.75 µM (active)
- IC50 [16]: > 100 µM (inactive)
- CC50 [17]: > 50 µM (active)

SMILES: Cc1cc(N/N=C/c2ccccc2F)c2ccccc2n1
- EC50 [18]: 2.66 µM (active)
